In patent publication US20060040957A1, “BICYCLIC PYRIMIDINE MATRIX METALLOPROTEINASE INHIBITORS” (priority 2001, published 2006):
Structures can show the parent of a compound that is named as a salt. Where two headings read alike, the source gives them in different places.

How the values were obtained:
Type in all cases: biochemical
[1] = target: MMP-13CD (catalytic domain of collagenase 3) (Homo sapiens, UniProt P45452); test: Thiopeptolide substrate hydrolysis assay, MMP-13CD; details: thiopeptolide substrate, HEPES pH 7.0, 22° C.
Excerpt: (§1) Thiopeptolide substrates show virtually no decomposition or hydrolysis at or below neutral pH in the absence of a matrix metalloproteinase enzyme.

[2] = target: T1, MMP-7FL (full length matrilysin) (Homo sapiens, UniProt P09237); test: Thiopeptolide substrate hydrolysis assay, MMP-7FL; details: HEPES pH 7.0, 22° C., read-out: IC50 (μM) Versus Certain MMPs: MMP-07 FL
T1 sequence (P09237 95-267): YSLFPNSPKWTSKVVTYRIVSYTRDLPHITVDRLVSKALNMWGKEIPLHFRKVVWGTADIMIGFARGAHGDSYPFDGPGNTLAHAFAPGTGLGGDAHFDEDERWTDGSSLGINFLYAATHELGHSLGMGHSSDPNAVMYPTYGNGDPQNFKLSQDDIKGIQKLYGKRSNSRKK
Excerpt: (§2) The invention compounds of Formula I have been evaluated in standard assays for their ability to inhibit the catalytic activity of various MMP enzymes.
as §1
(§3) Several representative compounds have been evaluated for their ability to inhibit various matrix metalloproteinase enzymes.

[3] = target: MMP-14CD (catalytic domain of MMP-14) (Homo sapiens, UniProt P50281); test: Thiopeptolide substrate hydrolysis assay, MMP-14CD; details: HEPES pH 7.0, 22° C., read-out: IC50 (μM) Versus Certain MMPs: MMP-14 CD
Excerpt: as §2, §1, §3

[4] = target: MMP-9FL (full length Gelatinase B) (Homo sapiens, UniProt P14780); test: Thiopeptolide substrate hydrolysis assay, MMP-9FL; details: HEPES pH 7.0, 22° C., read-out: IC50 (μM) Versus Certain MMPs: MMP-09 FL
MMP-9FL (full length Gelatinase B), sequence (P14780 94-707, species assumed): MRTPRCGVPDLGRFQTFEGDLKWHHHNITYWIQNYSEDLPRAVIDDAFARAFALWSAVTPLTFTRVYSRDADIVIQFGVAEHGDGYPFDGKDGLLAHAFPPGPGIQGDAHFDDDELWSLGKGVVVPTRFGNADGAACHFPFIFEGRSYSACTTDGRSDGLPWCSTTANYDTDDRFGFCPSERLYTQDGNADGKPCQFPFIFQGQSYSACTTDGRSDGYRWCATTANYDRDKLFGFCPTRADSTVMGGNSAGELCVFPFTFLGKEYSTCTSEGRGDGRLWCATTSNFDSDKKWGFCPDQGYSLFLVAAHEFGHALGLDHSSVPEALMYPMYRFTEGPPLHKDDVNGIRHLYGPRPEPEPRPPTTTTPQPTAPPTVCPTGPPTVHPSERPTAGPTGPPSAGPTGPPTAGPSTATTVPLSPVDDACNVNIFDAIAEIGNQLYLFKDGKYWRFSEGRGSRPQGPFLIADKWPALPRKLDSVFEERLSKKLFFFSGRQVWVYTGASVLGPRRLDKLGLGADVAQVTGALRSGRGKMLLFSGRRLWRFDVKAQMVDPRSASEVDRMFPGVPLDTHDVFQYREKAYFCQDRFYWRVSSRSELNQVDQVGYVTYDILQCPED
Excerpt: as §2, §1, §3

[5] = target: T2, MMP-2FL (full length Gelatinase A) (Homo sapiens, UniProt P08253); test: Thiopeptolide substrate hydrolysis assay, MMP-2FL; details: HEPES pH 7.0, 22° C., read-out: IC50 (μM) Versus Certain MMPs: MMP-02 FL
T2 sequence (P08253 110-660): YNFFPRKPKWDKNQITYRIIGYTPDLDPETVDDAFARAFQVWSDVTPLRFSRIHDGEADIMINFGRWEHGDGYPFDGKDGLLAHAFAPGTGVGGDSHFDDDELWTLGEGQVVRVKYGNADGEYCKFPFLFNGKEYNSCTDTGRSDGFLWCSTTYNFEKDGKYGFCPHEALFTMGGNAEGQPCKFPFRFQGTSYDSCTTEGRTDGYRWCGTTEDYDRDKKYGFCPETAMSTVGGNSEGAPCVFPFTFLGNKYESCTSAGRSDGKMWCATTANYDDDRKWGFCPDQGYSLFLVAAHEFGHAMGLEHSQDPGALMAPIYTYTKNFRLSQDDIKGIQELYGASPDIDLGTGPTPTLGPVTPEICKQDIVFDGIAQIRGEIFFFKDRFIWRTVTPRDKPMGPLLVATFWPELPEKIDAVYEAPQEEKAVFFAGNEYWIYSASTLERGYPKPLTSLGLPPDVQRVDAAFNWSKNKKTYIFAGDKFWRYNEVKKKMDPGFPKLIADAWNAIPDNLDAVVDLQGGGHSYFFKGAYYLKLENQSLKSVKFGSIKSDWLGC
Excerpt: as §2, §1, §3

[6] = read-out: IC50 (μM) Versus Certain MMPs: MMP-13 CD
[7] = IC50 (μM) Versus Certain MMPs: MMP-13 CD

SMILES | IC50 [1, 6] [µM] | also measured
O=c1cc2sccn2c(=O)n1Cc1ccncc1 [6-(4-Pyridylmethyl)-thiazolo[3,2-c]pyrimidine-5,7,dione] | > 100 | 
O=C(c1ccccc1)n1c(=O)cc2sccn2c1=O [6-Benzoyl-thiazolo[3,2-c]pyrimidine-5,7-dione] | > 100 | 
O=c1cc2sc(C(O)c3ccccc3)cn2c(=O)n1Cc1ccccc1 (stereo not drawn) [Example 7, 6-Benzyl-2-(hydroxy-phenyl-methyl)-thiazolo[3,2-c]pyrimidine-5,7-dione] | 32 | 
O=C(OCc1ccccc1)C1CSc2cc(=O)n(Cc3ccccc3)c(=O)n21 (stereo not drawn) [Example 20, 6-Benzyl-5,7-dioxo-2,3,6,7-tetrahydro-5H-thiazolo[3,2-c]pyrimidine-3-carboxylic acid benzyl ester] |  | IC50 (μM) Versus Certain MMPs: MMP-13 CD [1]: none
Cc1c(=O)n(Cc2ccccc2)c(=O)n2cc(C(=S)NCc3ccccc3)sc12 [Example 24, 6-Benzyl-8-methyl-5,7-dioxo-6,7-dihydro-5H-thiazolo[3,2-c]pyrimidine-2-carbothioic acid benzylamide] | > 30 | 
COC(=O)c1sc2cc(=O)n(Cc3ccccc3)c(=O)n2c1C [Example 26, 6-Benzyl-3-methyl-5,7-dioxo-6,7-dihydro-5H-thiazolo[3,2-c]pyrimidine-2-carboxylic acid methyl ester] | > 100 | 
Cc1c(=O)n(Cc2ccccc2)c(=O)n2cc(C(=O)NCc3ccc(Cl)cc3Cl)sc12 [Example 27, 6-Benzyl-8-methyl-5,7-dioxo-6,7-dihydro-5H-thiazolo[3,2-c]pyrimidine-2-carboxylic acid 2,4-dichloro-benzylamide] | > 30 | 
Cc1c(=O)n(Cc2ccccc2)c(=O)n2cc(C(O)C=Cc3ccccc3)sc12 (stereo not drawn) [Example 29, 6-Benzyl-2-(1-hydroxy-3-phenyl-allyl)-8-methyl-thiazolo[3,2-c]pyrimidine-5,7-dione] | 25 | 
Cc1c(=O)n(Cc2ccccc2)c(=O)n2cc(C(O)C#Cc3ccccc3)sc12 (stereo not drawn) [Example 31, 6-Benzyl-2-(1-hydroxy-3-phenyl-prop-2-ynyl)-8-methyl-thiazolo[3,2-c]pyrimidine-5,7-dione] | > 30 | 
Cc1c(=O)n(Cc2ccccc2)c(=O)n2cc(C(=O)O)sc12 [Example 33, 6-Benzyl-8-methyl-5,7-dioxo-6,7-dihydro-5H-thiazolo[3,2-c]pyrimidine-2-carboxylic acid] | > 100 | 
COC(=O)c1cn2c(=O)n(Cc3ccccc3)c(=O)c(C)c2s1 [Example 33a, 6-Benzyl-8-methyl-5,7-dioxo-6,7-dihydro-5H-thiazolo[3,2-c]pyrimidine-2-carboxylic acid methyl ester] |  | IC50 (μM) Versus Certain MMPs: MMP-13 CD [1]: none
Cc1c(=O)n(Cc2ccccc2)c(=O)n2cc(C(=O)NCc3cscn3)sc12 [Example 35, 6-Benzyl-8-methyl-5,7-dioxo-6,7-dihydro-5H-thiazolo[3,2-c]pyrimidine-2-carboxylic acid(thiazol-4-ylmethyl)-amide hydrochloride] | > 100 | 
Cc1c(=O)n(Cc2ccccc2)c(=O)n2cc(C(=O)NCc3cn4ccsc4n3)sc12 [Example 38, 6-Benzyl-8-methyl-5,7-dioxo-6,7-dihydro-5H-thiazolo[3,2-c]pyrimidine-2-carboxylic acid(imidazo[2,1-b]thiazol-6-ylmethyl)-amide] |  | IC50 [1, 7]: 25 µM
Cc1c(=O)n(Cc2ccccc2)c(=O)n2cc(C(=O)NCc3cnn(C)c3)sc12 [Example 39, 6-Benzyl-8-methyl-5,7-dioxo-6,7-dihydro-5H-thiazolo[3,2-c]pyrimidine-2-carboxylic acid(1-methyl-1H-pyrazol-4-ylmethyl)-amide] |  | IC50 [1, 7]: 2.3 µM
C#CCNC(=O)c1cn2c(=O)n(Cc3ccccc3)c(=O)c(C)c2s1 [Example 40, 6-Benzyl-8-methyl-5,7-dioxo-6,7-dihydro-5H-thiazolo[3,2-c]pyrimidine-2-carboxylic acid prop-2-ynylamide] | > 100 | 
Cc1cccc(CNC(=O)c2cn3c(=O)n(Cc4ccccc4)c(=O)c(C)c3s2)n1 [Example 41, 6-Benzyl-8-methyl-5,7-dioxo-6,7-dihydro-5H-thiazolo[3,2-c]pyrimidine-2-carboxylic acid(6-methyl-pyridin-2-ylmethyl)-amide] |  | IC50 [1, 7]: 6.2 µM
Cc1c(=O)n(Cc2ccccc2)c(=O)n2cc(C(=O)NCC3CCNCC3)sc12 [Example 45, 6-Benzyl-8-methyl-5,7-dioxo-6,7-dihydro-5H-thiazolo[3,2-c]pyrimidine-2-carboxylic acid(piperidin-4-ylmethyl)-amide hydrochloride] | > 100 | 
Cc1c(=O)n(Cc2ccccc2)c(=O)n2cc(C(=O)NCc3ccccn3)sc12 [Example 47, 6-Benzyl-8-methyl-5,7-dioxo-6,7-dihydro-5H-thiazolo[3,2-c]pyrimidine-2-carboxylic acid(pyridin-2-ylmethyl)-amide hydrochloride] |  | IC50 [1, 7]: 9.9 µM
Cc1nc(CNC(=O)c2cn3c(=O)n(Cc4ccccc4)c(=O)c(C)c3s2)cs1 [Example 52, 6-Benzyl-8-methyl-5,7-dioxo-6,7-dihydro-5H-thiazolo[3,2-c]pyrimidine-2-carboxylic acid(2-methyl-thiazol-4-ylmethyl)-amide hydrochloride] | > 100 | 
Cc1c(=O)n(Cc2nn[nH]n2)c(=O)n2cc(C(=O)NCc3ccc(F)cc3)sc12 [Example 66, 8-Methyl-5,7-dioxo-6-(2H-tetrazol-5-ylmethyl)-6,7-dihydro-5H-thiazolo[3,2-c]pyrimidine-2-carboxylic acid 4-fluoro-benzylamide] | 14 | 
Cc1c(=O)n(CCS(=O)(=O)c2ccc(Cl)cc2)c(=O)n2cc(C(=O)NCc3ccncc3)sc12 [Example 83, 6-[2-(4-Chloro-benzenesulfonyl)-ethyl]-8-methyl-5,7-dioxo-6,7-dihydro-5H-thiazolo[3,2-c]pyrimidine-2-carboxylic acid(pyridin-4-ylmethyl)-amide hydrochloride] | 2.6 | 
Cc1c(=O)n(Cc2ccc(S(N)(=O)=O)cc2)c(=O)n2cc(C(=O)NCc3ccncc3)sc12 [Example 84, 8-Methyl-5,7-dioxo-6-(4-sulfamoyl-benzyl)-6,7-dihydro-5H-thiazolo[3,2-c]pyrimidine-2-carboxylic acid(pyridin-4-ylmethyl)-amide hydrochloride] |  | IC50 [2]: > 100 µM; IC50 [3]: > 100 µM; IC50 [4]: > 100 µM; IC50 [5]: > 100 µM
Cc1c(=O)n(CCC(=O)c2ccccc2)c(=O)n2cc(C(=O)NCc3ccc(F)cc3)sc12 [Example 86, 8-Methyl-5,7-dioxo-6-(3-oxo-3-phenyl-propyl)-6,7-dihydro-5H-thiazolo[3,2-c]pyrimidine-2-carboxylic acid 4-fluoro-benzylamide] | 0.35 | 
Cc1c(=O)n(C(C)c2ccccc2)c(=O)n2cc(C(=O)NCc3ccc(F)cc3)sc12 (stereo not drawn) [Example 87, 8-Methyl-5,7-dioxo-6-(1-phenyl-ethyl)-6,7-dihydro-5H-thiazolo[3,2-c]pyrimidine-2-carboxylic acid 4-fluoro-benzylamide] | 2.1 | 
Cc1c(=O)n(CCCCCC#N)c(=O)n2cc(C(=O)NCc3ccc(F)cc3)sc12 [Example 89, 6-(5-Cyano-pentyl)-8-methyl-5,7-dioxo-6,7-dihydro-5H-thiazolo[3,2-c]pyrimidine-2-carboxylic acid 4-fluoro-benzylamide] | 1.08 | 
C=C(C)Cn1c(=O)c(C)c2sc(C(=O)NCc3ccc(F)cc3)cn2c1=O [Example 93, 8-Methyl-6-(2-methyl-allyl)-5,7-dioxo-6,7-dihydro-5H-thiazolo[3,2-c]pyrimidine-2-carboxylic acid 4-fluoro-benzylamide] |  | IC50 [1, 7]: 1.55 µM
COc1cccc(CNC(=O)c2cn3c(=O)n(Cc4ccccc4)c(=O)c(C)c3s2)c1 [Example 109, 6-Benzyl-8-methyl-5,7-dioxo-6,7-dihydro-5H-thiazolo[3,2-c]pyrimidine-2-carboxylic acid 3-methoxy-benzylamide] |  | IC50 [2]: > 30 µM; IC50 [3]: > 30 µM; IC50 [4]: > 30 µM; IC50 [5]: > 30 µM
